{
  "source": "patent US6451808B1",
  "about": "(DepoMed, Inc., priority 2000, dated 2002)",
  "test_system": "adult beagle dogs",
  "experiment": "Metformin-induced retrograde giant contractions (RGCs) and vomiting in beagle dogs, with or without intravenous ondansetron",
  "type": "in vivo, dog",
  "procedure": "Contractions of the smooth muscle of the gastrointestinal tracts of the dogs were monitored with strain gauge force transducers to permit detection of retrograde giant contractions (RGCs). The times at which either RGCs or vomiting occurred were recorded. Vomiting is always preceded by RGCs, while RGCs may also occur without vomiting and are generally thought to be an indication of nausea.",
  "data": [
    {"smiles": "Cc1nccn1CC1CCc2c(c3ccccc3n2C)C1=O", "note": "(stereo not shown) [Ondansetron, 1,2,3 ,9-Tetrahydro-9-methyl-3-[(2-methyl1-H-imidazole-1-yl)methyl]-4H-carbazol-4-one]", "values": [
      {"measurement": "Time at which one RGC and vomit occurred after metformin administration", "setting": "Dog A, Test 2, ondansetron 0.15 mg/kg i.v. 15 min before metformin 25 mg/kg", "result": 179, "unit": "minutes after metformin"},
      {"measurement": "Observations (RGCs, vomiting)", "setting": "Dog A, Test 3, ondansetron 0.15 mg/kg i.v. 15 min before metformin 25 mg/kg", "result": "no RGCs or vomiting occurred"},
      {"measurement": "Observations (RGCs, vomiting)", "setting": "Dog B, Tests 3 and 4, ondansetron 0.15 mg/kg i.v. 15 min before metformin 50 mg/kg", "result": "no RGCs or vomiting occurred"},
      {"measurement": "Suppression of the emetic effects of a metformin dosage", "setting": "overall conclusion from the dog tests", "result": "effective in suppressing the emetic effects"}
    ]}
  ]
}
